We go through 22 compounds from US20250114350A1, “INHIBITORS OF […] AS ANTIFUNGAL AGENTS” (Regents of the University of Minnesota, priority 2023, published 2025).

Broadly, the IC50 is the concentration at which inhibition is half-maximal. What is called MIC is the lowest concentration found to suppress growth. The low end stands for greater potency, the high end for weaker potency.

Values after ≈ are worked out from the molar mass of the structure shown.

For assay [1], the target named is CnFTase (C. neoformans farnesyl transferase, α/β heterodimer) (Cryptococcus neoformans, UniProt J9VSJ6+T2BPA1). Kind of assay: CnFTase activity assay: farnesylation of a dansylated (fluorescent) peptide, inhibitor concentration giving half-maximal enzyme rates at 1 μM FPP (1μMIC50). The settings on record: read-out: CnFTase IC50 (1μMIC50), condition A: 20 nM CnFTase, dansyl-GCVVM 0.62 μM, Tris-HCl pH 7.5, ZnCl2 12.5 μM, 2.5% DMSO, room temperature, triplicate.
Procedure: CnFTase activity assay. […] Final CnFTase concentrations (from 5× or 10× stocks in 20 mM Tris-HCl pH7.5, 20 mM NaCl, 5 μM ZnCl2, 1 mM TCEP, 1 mg/mL BSA): A, 20 nM; B: 4.4, 6.7, 10 nM triplets. […] For experiments that included phosphate, pH 7.5 stock was added to the desired final concentration. […] Data for determining ^1μMIC50 values (condition A) was collected in triplicate. Initial rates, vo, were extracted by fitting a straight line to the initial to tmax seconds of the reaction progress curves, where tmax values were selected by inspection and entered into curator tables for automated analysis. 1μMIC50 were determined by fitting a single-site Langmuir ligand-binding isotherm to the dependence of vo on inhibitor concentration (2, see below). All other experiments (condition B) all other experiments (condition B) used three different CnFTase concentrations, collecting progress curves as a function of FPP, inhibitor, and phosphate concentrations. The resulting triplet of progress curves was used to extract vo values automatically by minimizing
If x is an inhibitor concentration, then IC50=Ka^−1. […] In general, baseline signals, σ, (α or β) can be constant, or linear functions of ligand concentration x

For assay [2], the system named is C. neoformans FTase (CnFTase). Description: CnFTase activity assay, farnesylation of a fluorescent (dansylated) peptide, 1μMIC50. The conditions noted are these: pairwise comparison of analogues differing in one R group. Type of assay: biochemical, Cryptococcus neoformans. Here is the method: The library of 23 compounds contained leads with 60- to 150-fold enhanced ^1μMIC50 values.
CnFTase activity assay. The farnesyl transferase activity was measured by measuring the time dependence of the fluorescence emission intensity increase due to farnesylation of a dansylated peptide (Cassidy, P. B, et al., Methods Enzymol, 1995, 250, 30-43). Measurements were taken at room temperature in a 96-well black polystyrene, half area, flat bottom, non-binding surface plate using a SpectraMax M5e plate reader (excitation wavelength, 340 nm; emission wavelength 525 nm; emission high-pass filter, 455 nm). […] Final CnFTase concentrations (from 5× or 10× stocks in 20 mM Tris-HCl pH7.5, 20 mM NaCl, 5 μM ZnCl2, 1 mM TCEP, 1 mg/mL BSA): A, 20 nM; B: 4.4, 6.7, 10 nM triplets. […] For experiments that included phosphate, pH 7.5 stock was added to the desired final concentration. Data was analyzed using Python scripts for the Biomolecular Computing (BMC) package, included in the Dryad electronic repository. Data for determining ^1μMIC50 values (condition A) was collected in triplicate. Initial rates, vo, were extracted by fitting a straight line to the initial to tmax seconds of the reaction progress curves, where tmax values were selected by inspection and entered into curator tables for automated analysis. 1μMIC50 were determined by fitting a single-site Langmuir ligand-binding isotherm to the dependence of vo on inhibitor concentration (2, see below). All other experiments (condition B) […] used three different CnFTase concentrations, collecting progress curves as a function of FPP, inhibitor, and phosphate concentrations. The resulting triplet of progress curves was used to extract vo values automatically by minimizing
Single-site binding isotherms. Signals, S, resulting from a binding reaction were fit to
where α and β are the baselines associated with the apo-protein and its ligand complex, respectively, and y fractional occupancy of the binding site
If x is an inhibitor concentration, then IC50=Ka^−1. For Michaelis-Menten analysis 2 is reduced to a standard form (Bahar, I.; Jernigan, R. L.; Dill, K. A. Protein Actions, principles & modeling. Garland Science: 2017) with S=vo (initial rates), α=0, β=Vmax (maximal velocity), and KM=Ka^−1 (substrate dissociation constant). In general, baseline signals, σ, (α or β) can be constant, or linear functions of ligand concentration x

The subject of a further assay is C. neoformans. Kind of assay: Minimum inhibitory concentration (MIC): disc diffusion and broth microdilution. The conditions noted are these: Cryptococcus neoformans. (In agar diffusion tests the substance spreads into inoculated agar from a disc or well.)

CnFTase (C. neoformans farnesyl transferase, α/β heterodimer), sequence (J9VSJ6 entry or part of it): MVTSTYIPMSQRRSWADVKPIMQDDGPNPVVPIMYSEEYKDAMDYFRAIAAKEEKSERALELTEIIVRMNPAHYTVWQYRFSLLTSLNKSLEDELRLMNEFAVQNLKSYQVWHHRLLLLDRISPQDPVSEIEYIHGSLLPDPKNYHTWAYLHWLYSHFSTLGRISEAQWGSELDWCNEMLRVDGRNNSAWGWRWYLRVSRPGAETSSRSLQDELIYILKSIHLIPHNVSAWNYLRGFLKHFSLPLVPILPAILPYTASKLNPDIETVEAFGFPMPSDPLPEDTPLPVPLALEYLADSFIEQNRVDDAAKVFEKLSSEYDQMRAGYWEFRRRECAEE
CnFTase (C. neoformans farnesyl transferase, α/β heterodimer), sequence (T2BPA1 entry or part of it): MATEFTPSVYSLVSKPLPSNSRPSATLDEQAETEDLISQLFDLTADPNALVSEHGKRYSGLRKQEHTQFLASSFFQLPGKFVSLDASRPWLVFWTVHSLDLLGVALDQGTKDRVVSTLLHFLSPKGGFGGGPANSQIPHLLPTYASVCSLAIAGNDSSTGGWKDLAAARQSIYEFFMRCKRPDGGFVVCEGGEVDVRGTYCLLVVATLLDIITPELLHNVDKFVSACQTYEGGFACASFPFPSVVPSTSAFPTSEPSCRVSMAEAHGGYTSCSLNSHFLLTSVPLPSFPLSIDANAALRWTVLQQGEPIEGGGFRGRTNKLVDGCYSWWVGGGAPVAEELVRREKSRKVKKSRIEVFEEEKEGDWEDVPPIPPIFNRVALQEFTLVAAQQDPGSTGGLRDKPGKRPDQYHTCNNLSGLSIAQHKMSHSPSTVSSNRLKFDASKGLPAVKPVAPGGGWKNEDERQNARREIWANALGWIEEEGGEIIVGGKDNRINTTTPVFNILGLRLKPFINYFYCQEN

Consider `CCCC[C@H]1CN(c2cccc(OC(F)(F)F)c2)C(=O)CN1Cc1cncn1Cc1ccc(C#N)cc1` [Compound 2d, (S)-4-((5-((2-butyl-5-oxo-4-(3-(trifluoromethoxy)-phenyl)piperazin-1-yl)methyl)-1H-imidazol-1-yl)methyl)benzonitrile], for which, in assay [1], the IC50 turned out to be 340 ± 220 nM.
`CCCC[C@H]1CN(c2cccc(Cl)c2)C(=O)CN1Cc1cncn1Cc1ccc(Br)cc1` [Compound 2b, (S)-4-((1-(4-Bromobenzyl)-1H-imidazol-5-yl)methyl)-5-butyl-1-(3-chlorophenyl)piperazin-2-one]: in assay [1], the IC50 amounted to 1100 ± 780 nM.
Take `CCCCC[C@H]1CN(c2cccc(OC(F)(F)F)c2)C(=O)CN1Cc1cncn1Cc1ccc(Br)cc1` [Compound 21, (S)-4-((1-(4-Bromobenzyl)-1H-imidazol-5-yl)methyl)-5-pentyl-1-(3-(trifluoromethoxy)phenyl)piperazin-2-one]: in assay [2], the “change of affinity relative to the comparator analogue (cf.)” value was “showed little improvement”. In the assay on C. neoformans, this compound had an MIC of 3 to 6 µM (≈ 1.74 to 3.48 µg/mL).
On to `CCCC[C@H]1CN(c2cccc(OC(F)(F)F)c2)C(=O)CN1Cc1cncn1Cc1ccc(C(F)(F)F)cc1` [Compound 2h, (S)-5-Butyl-1-(3-(trifluoromethoxy)phenyl)-4-((1-(4-(trifluoromethyl)benzyl)-1H-imidazol-5-yl)methyl)piperazin-2-one], for which the concentration for half-maximal inhibition (IC50) in assay [1] turned out to be 280 ± 150 nM. The MIC in the assay on C. neoformans is 3 to 6 µM (≈ 1.66 to 3.33 µg/mL).
Turning to `CCCC[C@H]1CN(c2cccc(C)c2C)C(=O)CN1Cc1cncn1Cc1ccc(C#N)cc1` [Compound 2n, (S)-4-((5-((2-butyl-4-(2,3-dimethylphenyl)-5-oxopiperazin-1-yl)methyl)-1H-imidazol-1-yl)methyl)benzonitrile], the “change of affinity relative to the comparator analogue (cf.)” value in assay [2] was “had little effect or were slightly deleterious”. Further, the 50% inhibitory concentration (IC50) in assay [1] was found to be 2200 ± 1300 nM.
As to `CCCC[C@H]1CN(c2cccc(Cl)c2)C(=O)CN1Cc1cncn1Cc1ccc(C#N)cc1` [Compound 2a, (S)-4-((5-((2-Butyl-4-(3-chlorophenyl)-5-oxopiperazin-1-yl)methyl)-1H-imidazol-1-yl)methyl)benzonitrile], in assay [1], the half-inhibitory concentration (IC50) was 100 ± 10 nM.
Consider `CCCC[C@H]1CN(c2cccc(OC(F)(F)F)c2)C(=O)CN1Cc1cncn1Cc1ccc(Cl)cc1` [Compound 2e], for which, in assay [1], the IC50 turned out to be 260 ± 130 nM. For the same compound, the MIC in the assay on C. neoformans lay in the range of 3 to 6 µM (≈ 1.56 to 3.13 µg/mL).
As for `CCCC[C@H]1CN(c2cccc(OC(F)(F)F)c2)C(=O)CN1Cc1cncn1Cc1ccc(F)c(C#N)c1` [Compound 2p, (S)-5-((5-((2-Butyl-5-oxo-4-(3-(trifluoromethoxy)phenyl)piperazin-1-yl)methyl)-1H-imidazol-1-yl)methyl)-2-fluorobenzonitrile], in assay [1], the IC50 worked out at 180 ± 100 nM.
Take `CCCC[C@H]1CN(c2cccc(OC(F)(F)F)c2)C(=O)CN1Cc1cncn1Cc1ccc(C#N)c(Oc2ccccc2)c1` [Compound 2u, (S)-4-((5-((2-butyl-5-oxo-4-(3-(trifluoromethoxy)phenyl)-piperazin-1-yl)methyl)-1H-imidazol-1-yl)methyl)-2-phenoxybenzonitrile]: in assay [2], the “change of affinity relative to the comparator analogue (cf.)” value is listed as “did not alter affinities”. Besides, the IC50 in assay [1] is 150 ± 60 nM.
On to `CCC[C@H]1CN(c2cccc(OC(F)(F)F)c2)C(=O)CN1Cc1cncn1Cc1ccc(Br)cc1` [Compound 2k, (S)-4-((1-(4-Bromobenzyl)-1H-imidazol-5-yl)methyl)-5-propyl-1-(3-(trifluoromethoxy)phenyl) piperazin-2-one], for which, in assay [2], the “change of affinity relative to the comparator analogue (cf.)” value is given as “reduced affinity”. The IC50 in assay [1] was 1100 ± 510 nM. The compound further displayed an MIC in the assay on C. neoformans of 3 to 6 µM (≈ 1.65 to 3.31 µg/mL).
On to `CCCCC[C@H]1CN(c2cccc(OC(F)(F)F)c2)C(=O)CN1Cc1cncn1Cc1ccc(Br)cc1` [Compound 2l, (S)-4-((1-(4-Bromobenzyl)-1H-imidazol-5-yl)methyl)-5-pentyl-1-(3-(trifluoromethoxy)phenyl)piperazin-2-one], for which, in assay [1], the half-inhibitory concentration (IC50) was found to be 160 ± 20 nM.
On the same count and under the same terms, under `N#Cc1cc(Cn2cncc2CN2CCN(c3cccc(OC(F)(F)F)c3)C(=O)C2)ccc1Oc1ccccc1` [Compound 2v] stands 320 ± 100 nM; under `CCCC[C@H]1CN(c2ccccc2)C(=O)CN1Cc1cncn1Cc1ccc(Br)cc1` [Compound 2m, (S)-4-((1-(4-Bromobenzyl)-1H-imidazol-5-yl)methyl)-5-butyl-1-phenylpiperazin-2-one], 920 ± 510 nM.
Still for that read-out and setting: to `N#Cc1cc(Cn2cncc2CN2CCN(c3cccc(OC(F)(F)F)c3)C(=O)C2)ccc1F` [Compound 2r, 2-Fluoro-5-((5-((3-oxo-4-(3-(trifluoromethoxy)phenyl)piperazin-1-yl)methyl)-1H-imidazol-1-yl)methyl)benzonitrile] belongs 550 ± 30 nM; to `CCCC[C@H]1CN(c2cccc(OC(F)(F)F)c2)C(=O)CN1Cc1cncn1Cc1ccccc1` [Compound 2i, (S)-4-((1-Benzyl-1H-imidazol-5-yl)methyl)-5-butyl-1-(3-(trifluoromethoxy)phenyl)piperazin-2-one], 1900 ± 1700 nM.
Consider `N#Cc1ccc(Cn2cncc2CN2CCN(c3cccc(OC(F)(F)F)c3)C(=O)C2)cc1F` [Compound 2s, 2-Fluoro-4-((5-((3-Oxo-4-(3-(trifluoromethoxy)phenyl)piperazin-1-yl)methyl)-1H-imidazol-1-yl)methyl)benzonitrile], for which the “change of affinity relative to the comparator analogue (cf.)” value in assay [2] is recorded as 20 fold. The IC50 in assay [1] is 120 ± 40 nM.
Turning to `CCCC[C@H]1CN(c2cccc(OC(F)(F)F)c2)C(=O)CN1Cc1cncn1Cc1ccc(F)cc1` [Compound 2g, (S)-5-butyl-4-((1-(4-fluorobenzyl)-1H-imidazol-5-yl)methyl)-1-(3-(trifluoromethoxy)phenyl)piperazin-2-one], the IC50 in assay [1] was determined as 710 ± 240 nM.
The same measure, in the same setting: to `CCCC[C@H]1CN(c2cccc(OC(F)(F)F)c2)C(=O)CN1Cc1cncn1Cc1ccc(Oc2ccccc2)c(C#N)c1` [Compound 2t, (S)-5-((5-((2-Butyl-5-oxo-4-(3-(trifluoromethoxy)phenyl)-piperazin-1-yl)methyl)-1H-imidazol-1-yl)methyl)-2-phenoxybenzonitrile] belongs 210 ± 100 nM; to `CCCC[C@H]1CN(c2cccc(OC(F)(F)F)c2)C(=O)CN1Cc1cncn1Cc1cccc(C#N)c1` [Compound 2o, (S)-3-((5-((2-Butyl-5-oxo-4-(3-(trifluoromethoxy)-phenyl)piperazin-1-yl)methyl)-1H-imidazol-1-yl)methyl)benzonitrile], 740 ± 310 nM; to `CCCC[C@H]1CN(c2cccc(Cl)c2)C(=O)CN1Cc1cncn1Cc1ccc(Cl)cc1` [Compound 2c, (S)-5-Butyl-4-((1-(4-chlorobenzyl)-1H-imidazol-5-yl)methyl)-1-(3-chlorophenyl)piperazin-2-one], 1600 ± 800 nM.
With `N#Cc1ccc(Cn2cncc2CN2CCN(c3cccc(OC(F)(F)F)c3)C(=O)C2)cc1Oc1ccccc1` [Compound 2w, 4-((5-((3-Oxo-4-(3-(trifluoromethoxy)phenyl)piperazin-1-yl)methyl)-1H-imidazol-1-yl)methyl)-2-phenoxybenzonitrile], in assay [2], the “change of affinity relative to the comparator analogue (cf.)” value was “did not alter affinities”. For the same compound, the IC50 in assay [1] came to 2600 ± 1400 nM.
On the same counts, the results for `N#Cc1ccc(Cn2cncc2CN2CCN(c3cccc(OC(F)(F)F)c3)C(=O)C2)cc1` [Compound 2j, (S)-4-((5-((3-Oxo-4-(3-(trifluoromethoxy)phenyl)piperazin-1-yl)methyl)-1H-imidazol-1-yl)methyl)benzonitrile] are “had little effect or were slightly deleterious” and 2700 ± 1100 nM.
